Experimental data from patent US20130123494A1, “COMPLEX COMPOUND AND OPTICAL RECORDING MEDIUM CONTAINING SAME” (KH NEOCHEM CO., LTD., priority 2010, published 2013).

Experiments:
Type in all cases: physicochemical
[1] = Lightfastness test of thin films; settings: thin film on glass plate, UV fluorescent lamps 15 W/m^2, 45° C., 10 hours
Source text: Thin films of Complex Compounds (2) to (5), (7), (9) to (11), (13) to (21), (24), (26), (28), (30), (31), and (33) were respectively obtained similarly to the film-forming test except that a glass plate (manufactured by Taiyu Kizai Co., Ltd.; 2 cm×2 cm; thickness: 2 mm) was used as the substrates instead of the plate made of polycarbonate resin. Using a dewpanel light control weather meter DPWL-5R, manufactured by Suga Test Instruments Co., Ltd., which was equipped with ultraviolet fluorescent lamps (SUGA-FS40, manufactured by Suga Test Instruments Co., Ltd., having a peak wavelength of 313 nm and an illuminance distribution of 282 nm to 373 nm), light was irradiated on the thin films with an amount of light of 15 W/m^2 at 45° C. for 10 hours. Ultraviolet-visible absorption spectra of the thin film before and after the lightfastness test were measured using a spectrophotometer.
Here, the absorption maximum wavelength after lightfastness test denotes an absorption maximum wavelength in the absorption spectrum after the lightfastness test.

[2] = Moisture- and heat-resistances test of thin films; settings: thin film, 80° C., relative humidity 80%, 100 hours
Description: Similarly to the film-forming test, thin films of Complex Compounds (2) to (5), (7), (9) to (11), (13) to (21), (24), (26), (28), (30), (31), and (33) were respectively obtained. Using a constant temperature and humidity chamber, KHWII-40HP, manufactured by Satake Chemical Equipment Mfg Ltd., the thin films were exposed in the atmosphere having a temperature of 80° C. and a relative humidity of 80% for 100 hours. Ultraviolet-visible absorption spectra of the thin films before and after the moisture- and heat-resistances test were measured using a spectrophotometer. […] Here, the absorption maximum wavelength after the moisture- and heat-resistances test denotes the absorption maximum wavelength in an absorption spectrum after the moisture- and heat-resistances test.

[3] = Test of storage stability in solution; settings: 13 mg in 1 mL TFP, brown bottle, 25° C., 3 days; 1250-fold diluted for measurement
Description: Each of 13 mg of Complex Compounds (2) to (5), (7), (9) to (11), (13) to (21), (24), (26), (28), (30), (31), and (33) was dissolved in 1 mL of TFP, which was filtered with a filter made of TEFLON (registered trademark) (manufactured by Whatman, having a pore diameter of 0.20 μm), and solutions of Complex Compounds (2) to (5), (7), (9) to (11), (13) to (21), (24), (26), (28), (30), (31), and (33) were respectively obtained. Each of the obtained solutions was transferred to a brown bottle with a lid and stored at 25° C. for 3 days. Before and after the storage stability test, using a spectrophotometer, 1250-fold diluted solutions of Complex Compounds (2) to (5), (7), (9) to (11), (13) to (21), (24), (26), (28), (30), (31), and (33), respectively, were measured for their ultraviolet-visible absorption spectra. […] Here, the absorption maximum wavelength after the storage stability test is the absorption maximum wavelength in the absorption spectrum after the storage stability test.

SMILES	I^a/I^a0 (absorbance ratio at absorption maximum after/before lightfastness test) [1]	I^b/I^b0 (absorbance ratio at absorption maximum after/before moisture- and heat-resistances test) [2]	Δλmax(b) (change in absorption maximum wavelength) [2]	I^c/I^c0 (absorbance ratio at absorption maximum after/before storage stability test) [3]	Δλmax(c) (change in absorption maximum wavelength) [3]
CCn1c([O-])c(/C=N/[N-]c2ncccn2)c(C)c(C#N)c1=O.CCn1c([O-])c(/C=N/[N-]c2ncccn2)c(C)c(C#N)c1=O.CCn1c([O-])c(/C=N/[N-]c2ncccn2)c(C)c(C#N)c1=O.CCn1c([O-])c(/C=N/[N-]c2ncccn2)c(C)c(C#N)c1=O.Oc1ccc(-c2ccccc2)cc1-[n+]1ccc(-c2cc[n+](-c3cc(-c4ccccc4)ccc3O)cc2)cc1.[Co+3].[Co+3] [Complex Compound (7)]	0.99	1.00	0 nm	1.00	0 nm
CCn1c([O-])c(/C=N/[N-]C(=O)c2ccc(C(F)(F)F)cc2)c(C)c(C#N)c1=O.CCn1c([O-])c(/C=N/[N-]C(=O)c2ccc(C(F)(F)F)cc2)c(C)c(C#N)c1=O.CCn1c([O-])c(/C=N/[N-]C(=O)c2ccc(C(F)(F)F)cc2)c(C)c(C#N)c1=O.CCn1c([O-])c(/C=N/[N-]C(=O)c2ccc(C(F)(F)F)cc2)c(C)c(C#N)c1=O.Oc1ccc(-c2ccccc2)cc1-[n+]1ccc(-c2cc[n+](-c3cc(-c4ccccc4)ccc3O)cc2)cc1.[Co+3].[Co+3] [Complex Compound (9)]	0.97	1.00	0 nm	1.00	0 nm
CCn1c([O-])c(/C=N/[N-]C(=O)c2ccc(C(F)(F)F)cc2)c(C)c(C#N)c1=O.CCn1c([O-])c(/C=N/[N-]C(=O)c2ccc(C(F)(F)F)cc2)c(C)c(C#N)c1=O.CCn1c([O-])c(/C=N/[N-]C(=O)c2ccc(C(F)(F)F)cc2)c(C)c(C#N)c1=O.CCn1c([O-])c(/C=N/[N-]C(=O)c2ccc(C(F)(F)F)cc2)c(C)c(C#N)c1=O.[Co+3].[Co+3].c1cc2ccc3ccc[n+]4c3c2[n+](c1)CCC4 [Complex Compound (10)]	0.99	1.00	0.5 nm	1.00	0 nm
CCn1c([O-])c(/C=N/[N-]C(=O)c2ccc(C(F)(F)F)cc2)c(C)c(C#N)c1=O.CCn1c([O-])c(/C=N/[N-]C(=O)c2ccc(C(F)(F)F)cc2)c(C)c(C#N)c1=O.CCn1c([O-])c(/C=N/[N-]C(=O)c2ccc(C(F)(F)F)cc2)c(C)c(C#N)c1=O.CCn1c([O-])c(/C=N/[N-]C(=O)c2ccc(C(F)(F)F)cc2)c(C)c(C#N)c1=O.[Co+3].[Co+3].c1cc[n+]2c(c1)-c1cccc[n+]1CCC2 [Complex Compound (11)]	0.97	1.00	0 nm	1.00	0 nm
Cc1c(/C=N/[N-]c2nnnn2-c2ccccc2)c([O-])n(CC(C)C)c(=O)c1C#N.Cc1c(/C=N/[N-]c2nnnn2-c2ccccc2)c([O-])n(CC(C)C)c(=O)c1C#N.Cc1c(/C=N/[N-]c2nnnn2-c2ccccc2)c([O-])n(CC(C)C)c(=O)c1C#N.Cc1c(/C=N/[N-]c2nnnn2-c2ccccc2)c([O-])n(CC(C)C)c(=O)c1C#N.[Co+3].[Co+3].c1cc[n+]2c(c1)-c1cccc[n+]1CCC2 [Complex Compound (14)]	0.92	1.00	0 nm	1.01	0 nm
Cc1c(/C=N/[N-]c2nnnn2-c2ccccc2)c([O-])n(CC(C)C)c(=O)c1C#N.Cc1c(/C=N/[N-]c2nnnn2-c2ccccc2)c([O-])n(CC(C)C)c(=O)c1C#N.[Co+3].c1ccc(-c2nn(-c3ccccc3)[n+](-c3ccccc3)n2)cc1 [Complex Compound (15)]	0.88	1.00	0 nm	1.01	0 nm
Cc1c(/C=N/[N-]c2nnnn2-c2ccccc2)c([O-])n(CC(C)C)c(=O)c1C#N.Cc1c(/C=N/[N-]c2nnnn2-c2ccccc2)c([O-])n(CC(C)C)c(=O)c1C#N.Cc1c(/C=N/[N-]c2nnnn2-c2ccccc2)c([O-])n(CC(C)C)c(=O)c1C#N.Cc1c(/C=N/[N-]c2nnnn2-c2ccccc2)c([O-])n(CC(C)C)c(=O)c1C#N.[Co+3].[Co+3].c1ccc2c[n+](CCCCCCCCCC[n+]3ccc4ccccc4c3)ccc2c1 [Complex Compound (16)]	0.90	1.00	0 nm	1.01	0 nm
Cc1c(/C=N/[N-]c2nnnn2-c2ccccc2)c([O-])n(CC(C)C)c(=O)c1C#N.Cc1c(/C=N/[N-]c2nnnn2-c2ccccc2)c([O-])n(CC(C)C)c(=O)c1C#N.Cc1c(/C=N/[N-]c2nnnn2-c2ccccc2)c([O-])n(CC(C)C)c(=O)c1C#N.Cc1c(/C=N/[N-]c2nnnn2-c2ccccc2)c([O-])n(CC(C)C)c(=O)c1C#N.[Co+3].[Co+3].c1ccc2c[n+](CCCCCC[n+]3ccc4ccccc4c3)ccc2c1 [Complex Compound (17)]	0.88	0.98	0 nm	0.98	0 nm
COc1ccc2cc3[n+](cc2c1OC)CCc1cc2c(cc1-3)OCO2.Cc1c(/C=N/[N-]c2nnnn2-c2ccccc2)c([O-])n(CC(C)C)c(=O)c1C#N.Cc1c(/C=N/[N-]c2nnnn2-c2ccccc2)c([O-])n(CC(C)C)c(=O)c1C#N.[Co+3] [Complex Compound (18)]	0.90	1.00	0 nm	1.00	0 nm
Cc1c(/C=N/[N-]c2nnnn2-c2ccccc2)c([O-])n(CC(C)C)c(=O)c1C#N.Cc1c(/C=N/[N-]c2nnnn2-c2ccccc2)c([O-])n(CC(C)C)c(=O)c1C#N.Cc1c(/C=N/[N-]c2nnnn2-c2ccccc2)c([O-])n(CC(C)C)c(=O)c1C#N.Cc1c(/C=N/[N-]c2nnnn2-c2ccccc2)c([O-])n(CC(C)C)c(=O)c1C#N.[Co+3].[Co+3].c1ccc2c(c1)ccc[n+]2CCCC[n+]1cccc2ccccc21 [Complex Compound (21)]	0.87	1.00	0.5 nm	1.01	0.5 nm
